Results from article PMC11259170, “Small-molecule probe for IBD risk variant GPR65 I231L alters cytokine signaling networks through positive allosteric modulation” (Science Advances, 2024).
Where two headings read alike, the source gives them in different places.

Experiments:
mGPR65 = molecular target: T1, mGPR65 (Mus musculus, UniProt Q61038); experiment: cAMP detection in HeLa expression cell line, mGPR65; format: cell-based; settings: for Emax: HeLa, relative to 100uM forskolin (100%) and DMSO (0%), read-out: mGPR Max Activity %; for Emax / EC50: NA = no activity
T1 construct: expressed in transfected cells; host or cells: HeLa (ATCC CCL-2), lentiviral transduction, pLX317
T1 sequence (Q61038 whole entry): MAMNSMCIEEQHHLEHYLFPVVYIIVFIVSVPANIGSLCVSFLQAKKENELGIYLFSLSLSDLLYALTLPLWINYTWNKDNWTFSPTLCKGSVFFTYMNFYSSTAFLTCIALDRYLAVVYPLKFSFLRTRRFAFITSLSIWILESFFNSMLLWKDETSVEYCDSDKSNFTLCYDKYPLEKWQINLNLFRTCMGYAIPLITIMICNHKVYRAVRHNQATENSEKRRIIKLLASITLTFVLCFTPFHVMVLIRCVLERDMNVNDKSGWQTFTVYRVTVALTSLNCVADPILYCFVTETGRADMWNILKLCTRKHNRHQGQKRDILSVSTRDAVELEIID
Procedure: (§1) HeLa stable expression cell lines were produced by lentiviral transduction. Briefly, lentiviral plasmids for each GPCR with a C-terminal V5 Tag ([…]) were made in a pLX317 backbone using competent Escherichia coli (New England Biolabs, C3050H). Lenti-X 293 T (Takara, 632810) cells were transfected with the lentiviral plasmids to produce virus. Low-passage HeLa cells (American Type Culture Collection, CCL-2) were then transduced with lentivirus. After 48 hours, HeLa cells were cultured under selection with puromycin (3 μg/ml) and allowed to recover and expand before storing stocks in liquid nitrogen.
(§2) cAMP was measured in cells using the Lance Ultra cAMP Kit. HeLa cells were cultured under puromycin (3 μg/ml) selection. One day before the experiment, cells were seeded in T75 flasks and allowed to adhere overnight. On the day of the experiment, cells were washed twice with Dulbecco’s PBS and lifted using prewarmed 1× versene solution (Gibco, 15040066). Cells were counted in HBSS (Gibco, 14025092) and then resuspended in stimulation buffer prepared according to the manufacturer’s instructions and adjusted to pH 7.2 using 1 M sodium hydroxide. Cells were added to the plate at a density of 1500 cells per well in white opaque 384-well assay ready microplates containing 100 nl of 10 mM compound in DMSO. Cells were stimulated for 30 min at RT, then lysed and incubated with detection reagents for 1 hour in the dark at RT. Plates were read on BMG Labtech PHERAstar FSX (excitation, 337 nm; emission, 620 and 665 nm). Data analysis was performed using GraphPad Prism.

hGPR65 = molecular target: T2, hGPR65 (Homo sapiens, UniProt Q8IYL9); experiment: cAMP detection in HeLa expression cell line, hGPR65; format: cell-based; settings: for Emax: HeLa, relative to 100uM forskolin (100%) and DMSO (0%), read-out: hGPR Max Activity %; for Emax / EC50: NA = no activity
T2 construct: expressed in transfected cells; host or cells: HeLa (ATCC CCL-2), lentiviral transduction, pLX317
T2 sequence (Q8IYL9 whole entry): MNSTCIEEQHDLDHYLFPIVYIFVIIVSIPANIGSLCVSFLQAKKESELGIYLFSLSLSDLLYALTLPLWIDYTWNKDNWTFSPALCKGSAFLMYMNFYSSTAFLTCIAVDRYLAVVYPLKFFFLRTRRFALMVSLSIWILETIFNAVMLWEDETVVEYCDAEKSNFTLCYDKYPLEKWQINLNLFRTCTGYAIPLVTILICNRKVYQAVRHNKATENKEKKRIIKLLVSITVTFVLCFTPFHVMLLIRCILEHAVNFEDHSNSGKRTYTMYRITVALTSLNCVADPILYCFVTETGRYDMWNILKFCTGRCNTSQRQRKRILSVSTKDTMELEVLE
Procedure: as §1, §2

[1] = test system: GFP-expressing HeLa cells; experiment: cAMP detection in HeLa expression cell line, GFP control; format: cell-based, human; settings: Homo sapiens, HeLa, NA = no activity; for Emax: relative to 100uM forskolin (100%) and DMSO (0%), read-out: GFP Max Activity %
Procedure: as §1, §2

[2] = mGPR EC50 (uM), 2nd mGPR column pair
[3] = 1st mGPR column pair, read-out: mGPR EC50
[4] = 1st hGPR column pair, read-out: hGPR EC50
[5] = 2nd mGPR column pair, read-out: mGPR EC50
[6] = 2nd hGPR column pair, read-out: hGPR EC50

Row | Compound | Emax (mGPR65; 2nd mGPR column pair) | Emax (mGPR65) | EC50 (mGPR65; [2]) | EC50 (mGPR65; mGPR EC50 (uM)) | cAMP production relative to BRD2813, mGPR65 (mGPR65; pH 7.2) | Emax (hGPR65; 1st hGPR column pair) | Emax (hGPR65; 2nd hGPR column pair) | EC50 (hGPR65; hGPR EC50 (uM)) | EC50 (hGPR65; hGPR EC50) | cAMP production relative to BRD2813, hGPR65 (hGPR65; pH 7.2) | EC50 ([1]; 1st GFP column pair) | Emax ([1]; 1st GFP column pair) | EC50 ([1]; 2nd GFP column pair) | Emax ([1]; 2nd GFP column pair) | EC50 (mGPR65; [3]) | EC50 (hGPR65; [4]) | EC50 (mGPR65; [5]) | EC50 (hGPR65; [6]) | potency and total cAMP production relative to BRD2813 (hGPR65; receptor not given)
1 | COCc1ccc(-c2cc(O)n3ncc(C(=O)Nc4ccccc4)c3n2)cc1 [BRD9876] | 34.4% | 45.3% | 4.76 µM | 4.06 µM | decreased potency | 81.6% | 79.5% | 8.06 µM | 12 µM | detrimental to potency | 3620 nM | 1.96% | 25700 nM | 3.97% | – | – | – | – | –
2 | Cc1ccc(NC(=O)c2cnn3c(O)cc(-c4cnc(N5CCN(C)CC5)c(Cl)c4)nc23)cc1 [BRD5069] | 42.5% | 63.3% | 5.03 µM | 0.65 µM | – | – | 1.75% | – | 6.24 µM | – | 1570 nM | 2.17% | – | – | – | – | – | – | –
3 | Cc1ccc(NC(=O)c2cnn3c(O)cc(-c4cccc(C)c4)nc23)cc1 [BRD1420] | – | 2.06% | – | – | – | 22.9% | – | – | – | – | 317 nM | 2.36% | – | – | 0.471 µM | 3.71 µM | – | – | –
4 | Cc1ccc(NC(=O)c2cnn3c(O)cc(-c4ccc(COC(C)C)cc4)nc23)c(Cl)c1 [BRD5081] | 60.4% | 66.3% | – | – | – | 80.6% | 63.4% | – | – | – | 1620 nM | 2.48% | – | – | 1.01 µM | 4.26 µM | 1.14 µM | 7.63 µM | –
5 | CC(C)OCc1ccc(-c2cc(O)n3ncc(C(=O)Nc4cccnc4)c3n2)cc1 [BRD5077] | 62.4% | 70% | – | – | – | 57.8% | 70.1% | – | – | – | – | – | 1620 nM | 3.65% | 2.51 µM | 5.55 µM | 2.72 µM | 8.26 µM | –
6 | CCCc1cc(-c2cc(O)n3ncc(C(=O)Nc4ccc(C)cc4)c3n2)no1 [BRD8472] | 55.4% | 59.4% | – | – | – | 67.7% | 51.3% | – | – | – | 24900 nM | 2.75% | – | – | 0.103 µM | 1.25 µM | 0.397 µM | 0.79 µM | –
7 | CNC(=O)c1ccc(-c2cc(O)n3ncc(C(=O)Nc4ccc(C)cc4)c3n2)cc1 [BRD5083] | 106% | – | – | – | – | 75.2% | – | – | – | – | – | – | 6270 nM | 1.9% | – | 26.2 µM | 99.6 µM | – | –
8 | COc1cc(-c2cc(O)n3ncc(C(=O)Nc4ccc(C)cc4)c3n2)ccc1F [BRD5066] | 29.4% | 31.3% | – | – | – | 67% | 70.4% | – | – | – | – | – | 6080 nM | 1.99% | 1.15 µM | 1.47 µM | 0.781 µM | 1.84 µM | –
9 | CCOCc1ccc(-c2cc(O)n3ncc(C(=O)Nc4ccccc4)c3n2)cc1 [BRD5063] | 38% | 52.1% | – | – | – | 76.1% | 66.6% | – | – | – | – | – | 190 nM | 1.85% | 5.47 µM | 4.06 µM | 2.73 µM | 5.84 µM | –
10 | Cc1ccc(NC(=O)c2cnn3c(O)cc(-c4ccc(N5CCOCC5)c(Cl)c4)nc23)cc1 [BRD5062] | 55.1% | 50.8% | – | – | – | 74.5% | 71.6% | – | – | – | 24700 nM | 3.17% | 11400 nM | 1.01% | 0.46 µM | 1.07 µM | 0.284 µM | 0.851 µM | –
11 | Cc1cnc(NC(=O)c2cnn3c(O)cc(-c4ccc(COC(C)C)cc4)nc23)cn1 [BRD5073] | 59.1% | 71% | – | – | – | 73.6% | 65.1% | – | – | – | – | – | 3530 nM | 2.17% | 2.27 µM | 2.16 µM | 2.78 µM | 3.05 µM | –
12 | Cc1ccc(NC(=O)c2cnn3c(O)cc(-c4ccc(-c5ccccc5)cc4)nc23)cc1 [BRD8716] | 33.1% | 40.2% | – | – | – | 79.2% | 72.4% | – | – | – | 7300 nM | 1.95% | 5600 nM | 1.51% | 0.368 µM | 0.171 µM | 0.528 µM | 0.284 µM | improved potency but had little effect on total cAMP production
13 | Cc1ccc(NC(=O)c2cnn3c(O)cc(-c4ccc(N5CCOCC5)cc4)nc23)cc1 [BRD4390] | 26.8% | 26.6% | – | – | – | 73.5% | 76.8% | – | – | – | – | – | 11700 nM | 2.2% | 0.403 µM | 0.703 µM | 1.07 µM | 0.265 µM | –
14 | CC(C)OCc1ccc(-c2cc(O)n3ncc(C(=O)Nc4ccccc4)c3n2)cc1 [BRD5060] | 48.6% | 64.4% | – | – | – | 94.5% | 109% | – | – | – | 47000 nM | 5.52% | 78100 nM | 2.12% | 2.07 µM | 3.72 µM | 1.62 µM | 10.8 µM | –
15 | Cc1ccc(NC(=O)c2cnn3c(O)cc(-c4ccc(N5CCN(C)CC5)nc4)nc23)cc1 [BRD5070] | 34.4% | 38.5% | – | – | – | 13.4% | 4.57% | – | – | – | 3200 nM | 2.48% | 421 nM | 2.13% | 1.35 µM | 1.31 µM | 2.15 µM | 0.0687 µM | –
